From US6204293A, “Inhibitors of protein isoprenyl transferases” (University of Pittsburgh, priority 1998, dated 2001)
Counter-ions that a name gives are not always drawn.

biological target: T1, Rat brain protein farnesyltransferase (Rattus norvegicus, UniProt Q02293+Q04631); assay: % inhibition of farnesylation, scintillation proximity assay with biotin-K Ras B fragment; format: biochemical; settings: Table 1; 1 × 10^-5 M
T1 construct: Rat brain protein farnesyltransferase activity is measured; from tissue; host or cells: rat brain
How it was run: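 Rat brain enzyme, purified through three steps, in a scintillation proximity assay kit with biotin-K Ras B fragment substrate at 0.1 mM final. Value is % inhibition of farnesylation.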

T1 sequence (Q02293 whole entry, the tested form may be a part, one chain of several): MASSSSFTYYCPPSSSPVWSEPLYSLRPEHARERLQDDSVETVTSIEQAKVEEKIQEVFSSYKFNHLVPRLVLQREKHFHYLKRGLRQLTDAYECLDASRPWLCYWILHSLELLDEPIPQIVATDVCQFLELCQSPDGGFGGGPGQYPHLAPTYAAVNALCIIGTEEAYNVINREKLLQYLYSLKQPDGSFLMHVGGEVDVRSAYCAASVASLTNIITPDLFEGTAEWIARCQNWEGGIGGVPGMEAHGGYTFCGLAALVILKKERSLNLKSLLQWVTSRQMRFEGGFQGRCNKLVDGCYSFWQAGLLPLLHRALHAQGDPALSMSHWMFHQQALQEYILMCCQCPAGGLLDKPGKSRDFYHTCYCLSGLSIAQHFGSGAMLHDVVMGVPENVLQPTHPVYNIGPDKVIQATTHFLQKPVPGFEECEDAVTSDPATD

Compound	% inhibition at 1 × 10^-5 M [%]
COc1cc(I)c(C(=O)Nc2ccc(C(=O)N[C@@H](CCSC)C(=O)O)c(-c3ccccc3)c2)cc1OC [Example 756]	47
CSCC[C@H](NC(=O)c1ccc(CNc2cc(C(C)(C)C)[nH]n2)cc1-c1ccccc1)C(=O)O [Example 381]	79
CCn1cc(NCc2ccc(C(=O)N[C@@H](CCSC)C(=O)O)c(-c3ccccc3)c2)c(=O)n1CC [Example 364]	69
CSCC[C@H](NC(=O)c1ccc(CNCCC2CCCCC2)cc1-c1ccccc1)C(=O)O [Example 663]	43

same assay, conditions: Table 2; 1 × 10^-6 M

Compound	% inhibition at 1 × 10^-6 M [%]
CSCC[C@H](NC(=O)c1ccc(CN(CCO)Cc2ccccc2)cc1-c1ccccc1)C(=O)O [Example 515]	72
COc1cccc(CNCc2ccc(C(=O)N[C@@H](CCSC)C(=O)O)c(-c3ccccc3)c2)c1 [Example 652]	41
CSCC[C@H](NC(=O)c1ccc(NC(=O)[C@@H]2CSCN2)cc1-c1ccccc1)C(=O)O [Example 165]	74
CSCC[C@H](NC(=O)c1ccc(NC(=O)Cc2ccccc2)cc1-c1ccccc1C)C(=O)O [Example 540]	40
CSCC[C@H](NC(=O)c1ccc(CN(CCC2CCCCC2)C(=O)N(C)C)cc1-c1ccccc1C)C(=O)O [Example 610]	94
CSCC[C@H](NC(=O)c1ccc(CN(C)CC(O)CO)cc1-c1ccccc1C)C(=O)O (stereo partly drawn) [Example 719]	90
CSCC[C@H](NC(=O)c1ccc(/C=C/c2ccccc2)cc1-c1ccccc1C)C(=O)O [Example 791]	53
CSCC[C@H](NC(=O)c1ccc(CN(C(C)C)C2(Cc3ccccc3)CCC2)cc1-c1ccccc1C)C(=O)O [Example 331]	98
CCSC[C@H](CC1CCCCC1)NCc1ccc(C(=O)N[C@@H](CCSC)C(=O)OCOC(=O)C(C)(C)C)c(-c2ccccc2C)c1 [Example 764]	88
CSCC[C@H](NC(=O)c1ccc(CNC(CC2CCCCC2)C(O)C(O)CC(C)C)cc1-c1ccccc1C)C(=O)O (stereo partly drawn) [Example 528]	99
CSCC[C@H](NC(=O)c1ccc(CN[C@H](CO)Cc2ccccc2)cc1-c1ccccc1C)C(=O)O [Example 727]	95
CSCC[C@H](NC(=O)c1ccc(CN2CCC[C@H]2COCc2ccccc2)cc1-c1ccccc1C)C(=O)O [Example 824]	90
COc1ccccc1CNCc1ccc(C(=O)N[C@@H](CCSC)C(=O)O)c(-c2ccccc2)c1 [Example 650]	68
CSCC[C@H](NC(=O)c1ccc(CN2CCC(OCc3ccccc3)C2)cc1-c1ccccc1C)C(=O)O (stereo partly drawn) [Example 988]	92
CSCC[C@H](NC(=O)c1ccc(S(=O)(=O)NCCC2CCCCC2)cc1-c1ccccc1C)C(=O)O [Example 772]	79
CSCC[C@H](NC(=O)c1ccc(CN(CCO)c2ccccc2)cc1-c1ccccc1)C(=O)O [Example 505]	72
CSCC[C@H](NC(=O)c1ccc(CNCC(O)CO)cc1-c1ccccc1)C(=O)O (stereo partly drawn) [Example 632]	43
CSCC[C@H](NC(=O)c1ccc(CN(Cc2ccco2)C(C)C)cc1-c1ccccc1C)C(=O)O [Example 831]	92
CSCC[C@H](NC(=O)c1ccc(CN(C)C(C)(C)Cc2ccccc2)cc1-c1ccccc1C)C(=O)O [Example 309]	98
COC(=O)c1cscc1NCc1ccc(C(=O)N[C@@H](CCSC)C(=O)O)c(-c2ccccc2C)c1 [Example 724]	87

same assay, conditions: Table 3; 1 × 10^-7 M

Compound	% inhibition at 1 × 10^-7 M [%]
CSCC[C@H](NC(=O)c1ccc(/C=C/c2ccc(Oc3ccccc3Cl)cc2)cc1-c1ccccc1C)C(=O)O [Example 854]	78
CSCC[C@H](NC(=O)c1ccc(CN(Cc2ccccc2)c2ccccc2[N+](=O)[O-])cc1-c1ccccc1C)C(=O)[O-].[Li+] [Example 849]	66
CSCC[C@H](NC(=O)c1ccc(C=Cc2cncs2)cc1-c1ccccc1C)C(=O)[O-].[Li+] [Example 785]	96

same assay, conditions: Table 4; 1 × 10^-8 M

Compound	% inhibition at 1 × 10^-8 M [%]
CCCCS(=O)(=O)N(CCCc1ccccc1)Cc1ccc(C(=O)N[C@@H](CCSC)C(=O)O)c(-c2ccccc2C)c1 [Example 927]	74

same assay, conditions: Table 6; * footnote 0.1 μM (title: 0.1 mM)

Compound	% inhibition at 0.1 μM (*) [%]
CCCCC(OCc1ccc(C(=O)N[C@@H](CCSC)C(=O)[O-])c(-c2ccccc2C)c1)C1CCNCC1.[Li+] (stereo partly drawn) [Example 1288]	69

same assay, conditions: read-out: % inhibition at 0.01 μM (**); Table 6; ** footnote 0.01 μM (title: 0.01 mM)

Compound	inhibition at 0.01 µM [%]
COc1ccc(COC[C@H](CC2CCCCC2)OCc2ccc(C(=O)N[C@@H](CCSC)C(=O)O)c(-c3ccccc3C)c2)cc1 [Example 1051, N-[4-(3-cyclohexyl-1-(4-methoxybenzyloxy)prop-2-yloxymethyl)-2-(2-methylphenylbenzoyl]methionine, lithium salt]	79
CCCC[C@H](CC1CCCCC1)OCc1ccc(C(=O)N[C@@H](CCSC)C(=O)O)c(-c2ccccc2C)c1 [Example 1303, N-[4-(1-Cyclohexyl-2-hexyloxymethyl)-2-(2-methylphenyl)benzoyl]methionine Lithium Salt]	91

same assay, conditions: read-out: % inhibition at 0.1 μM (*); Table 6; * footnote 0.1 μM (title: 0.1 mM)

Compound	inhibition at 0.1 µM [%]
CSCC[C@H](NC(=O)c1ccc(CCC(=O)OCC2CCCCC2)cc1-c1ccccc1C)C(=O)O [Example 1153, N-[4-(cyclohexylmethoxycarbonylethyl)-2-(2-methylphenyl)benzoyl]methionine]	89
CCCCC(OCc1ccc(C(=O)N[C@@H](CCSC)C(=O)O)c(-c2ccccc2C)c1)c1scnc1C (stereo partly drawn) [Example 1095, N-[4-(1-(4-methylthiazol-5-yl)pentyloxy)methyl)-2-(2-methylphenyl)benzoyl]methionine lithium salt]	76

same assay, conditions: read-out: % inhibition at 1 × 10^-6 M; Table 2; 1 × 10^-6 M

Compound	inhibition at 1 µM [%]
CSCC[C@H](NC(=O)c1ccc(COCCC23CC4CC(CC(C4)C2)C3)cc1-c1ccccc1C)C(=O)O [Example 404, 4-[2-(1-adamantane)ethoxy]methyl-2(2-methylphenyl)benzoylmethionine lithium salt.]	98
CSCC[C@H](NC(=O)c1ccc(CSc2nc3ccccc3s2)cc1-c1ccccc1C)C(=O)O [Example 323, [4-(2-benzothiazolylthiomethyl)-2-(2-methylphenyl)benzoyl]methionine]	98
CSCC[C@H](NC(=O)c1cc(Cc2ccccc2)c(COCCCc2ccccc2)cc1-c1ccccc1C)C(=O)O [Example 925]	87
CSCC[C@H](NC(=O)c1ccc(CS(=O)(=O)Cc2ccccc2)cc1-c1ccccc1C)C(=O)O [Example 555, N-[4-benzylsulfonylmethyl-2-(2-methylphenyl)benzoyl]methionine]	85

same assay, conditions: read-out: % inhibition at 1 × 10^-7 M

Compound	inhibition at 0.1 µM [%]
COc1cccc(-c2ccc(COCc3ccc(C(=O)N[C@@H](CCSC)C(=O)O)c(-c4ccccc4C)c3)o2)c1 [Example 442, N-[4-(5-(3-methoxyphenyl)furan-2-ylmethoxymethyl)-2-(2-methylphenyl)benzoyl]methionine lithium salt]	88
CSCC[C@H](NC(=O)c1ccc(CSCC2CCCCC2)cc1-c1ccccc1C)C(=O)O [Example 559, N-[4-cyclohexylmethylthiomethyl-2-(2-methylphenyl)benzoyl]methionine, lithium salt]	96
CSCC[C@H](NC(=O)c1ccc(COCCc2ccc(-c3ccc(Cl)cc3)o2)cc1-c1ccccc1C)C(=O)O [Example 536, N-[4-(5-(4-chlorophenyl)furan-2-ylethoxymethyl)-2-(2-methylphenyl)benzoyl]methionine lithium salt]	79
CSCC[C@H](NC(=O)c1ccc(COCc2cncs2)cc1-c1ccccc1C)C(=O)O [Example 539, N-[4-(thiazol-5-ylmethoxymethyl)-2-(2-methylphenyl)benzoyl]methionine lithium salt]	89
COc1ccc(COCc2ccc(C(=O)N[C@@H](CCSC)C(=O)O)c(-c3ccccc3C)c2)cc1 [Example 935, N-[4-(4-methoxybenzyloxymethyl)-2-(2-methylphenyl)benzoyl]methionine lithium salt]	72
COc1ccc(-c2ccc(COCc3ccc(C(=O)N[C@@H](CCSC)C(=O)O)c(-c4ccccc4C)c3)o2)cc1 [Example 446, N-[4-(5-(4-methoxyphenyl)furan-2-ylmethoxymethyl)-2-(2-methylphenyl)benzoyl]methionine lithium salt]	91
CSCC[C@H](NC(=O)c1ccc(COC(Cc2ccccc2)Cc2ccccc2)cc1-c1ccccc1C)C(=O)O [Example 522, N-[4-(1,3-diphenylpropan-2-yl)oxymethyl-2-(2-methylphenyl)benzoyl]methionine lithium salt]	93

same assay, conditions: read-out: % inhibition at 1 × 10^-7 M; Table 3; 1 × 10^-7 M

Compound	inhibition at 0.1 µM [%]
CSCC[C@H](NC(=O)c1ccc(COCc2ccc(-c3ccc(Cl)cc3)o2)cc1-c1ccccc1C)C(=O)O [Example 443, N-[4-(5-(4-chlorophenyl)furan-2-ylmethoxmethyl)-2-(2-methylphenyl)benzoyl]methionine lithium salt]	97
CSCC[C@H](NC(=O)c1ccc(CSc2nc3ccccc3c(=O)[nH]2)cc1-c1ccccc1C)C(=O)O [Example 745]	93

same assay, conditions: read-out: % inhibition at 1 × 10^-8 M

Compound	inhibition at 0.01 µM [%]
CSCC[C@H](NC(=O)c1ccc(COCCc2ccccc2Cl)cc1-c1ccccc1C)C(=O)O [Example 588, N-[4-(2-(2-chlorophenyl)ethoxymethyl)-2-(2-methylphenyl)benzoyl]methionine lithium salt]	68
CSCC[C@H](NC(=O)c1ccc(COCc2cnc(-c3cccc(Cl)c3)s2)cc1-c1ccccc1C)C(=O)O [Example 899, N-[4-(2-(3-chlorophenyl)thiazol-5-ylmethoxymethyl)-2-(2-methylphenyl)benzoyl]methionine lithium salt]	88
